# Tested on: CD4+CD28null T cells from lung transplant recipients with BOS
# Test: Inhibition of proliferation by cyclosporine A (BrdU incorporation, anti-CD3 stimulation)
# Type: cell-based, human
# Conditions: preliminary findings, n=2 subjects
# Experimental: Inhibition of Proliferation by Cyclosporine A (CsA) Segregated CD28+ and CD28null CD4 T-cell subpopulations were individually cultured in duplicate wells coated with anti-CD3 monoclonal antibody (OKT3) (see above). Autologous nurse cells, positively selected during the initial CD4 T-cell isolations (see above) were added in a 3:1 nurse cell:CD4 T-cell ratio. In order to eliminate potential confounding by CD4dim monocytes, all CD4+ cells were depleted from the nurse cells (<<1% residual), prior to their use in cultures, by positive selection with anti-CD4-coated magnetic beads (Invitrogen, Carlsbad, Calif.). Cyclosporine (Novartis, East Hanover, N.J.) to a final concentration of 100 ng/ml was added to half the wells. Proliferation within the respective CD4 subpopulations were measured by bromodeoxyuridine (BrdU) incorporation, using reagents and methods supplied in a kit (BD Pharmingen). In brief, BrdU in a final concentration of 10 μM was added to cultures two days prior to their harvests. After 5±1 days of culture, cells were harvested from wells and stained with anti-CD4, fixed and permeabilized, and then incubated with anti-BrdU and 7-amino-actinomycin (7-AAD). The proportion of proliferating CD4+ T cells (BrdU+) among the viable cells (≧diploid DNA content) was determined by flow cytometry.
smiles,measurement,value
C=CC[C@@H]1/C=C(\C)C[C@H](C)C[C@H](OC)[C@H]2O[C@@](O)(C(=O)C(=O)N3CCCC[C@H]3C(=O)O[C@H](/C(C)=C/[C@@H]3CC[C@@H](O)[C@H](OC)C3)[C@H](C)[C@@H](O)CC1=O)[C@H](C)C[C@@H]2OC [tacrolimus],resistance of the cells to the drug,relatively resistant

# Reference: patent US20110111437A1, “Biomarkers For Prognosis of Pulmonary Diseases” (THE UNIVERSITY OF PITTSBURGH-OF THE COMMONWEALTH SYSTEM OF …, priority 2009, published 2011)
